In ChEMBL document CHEMBL5726339, “Ether compounds for treatment of complement mediated disorders” (2017):

Target: Complement factor D (Homo sapiens, UniProt P00746)
Test: Enzyme Assay: Human factor D (purified from human serum, Complement Technology, Inc.) at 80 nM final concentration is incubated with test compound at various concentrations for 5 minutes at room temperature in 50 mM Tris, 1M NaCl, pH 7.5. A synthetic substrate Z-L-Lys-SBzl and DTNB (Ellman's reagent) are added to final concentrations of 100 µM each. The increase in color is recorded at OD405 nm in a microplate in kinetic mode over 30 minutes with 30 second time points in a […]. IC50 values are calculated by non-linear regression from the percentage of inhibition of complement factor D activity as a function of test compound concentration.

Chain of Complement factor D (P00746 whole entry): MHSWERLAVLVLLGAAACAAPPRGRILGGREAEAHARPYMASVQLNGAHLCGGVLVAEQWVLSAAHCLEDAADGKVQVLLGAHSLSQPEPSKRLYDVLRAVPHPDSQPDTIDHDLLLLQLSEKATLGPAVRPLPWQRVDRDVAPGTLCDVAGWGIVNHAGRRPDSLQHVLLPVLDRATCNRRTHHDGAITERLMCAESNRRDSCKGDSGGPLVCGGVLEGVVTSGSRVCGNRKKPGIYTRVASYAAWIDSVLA

Structure (SMILES)	IC50 [nM]
CC(=O)c1cn(CC(=O)N2[C@@H]3C[C@@H]3C[C@H]2C(=O)Nc2cccc(-c3ccccc3Cl)c2F)c2ccc(Oc3ncc(Br)cn3)cc12	< 1000
CC(=O)c1cn(CC(=O)N2C[C@H](F)C[C@H]2C(=O)Nc2cccc(Br)n2)c2ccc(Oc3ncc(Br)cn3)cc12	< 1000
